Legend:
Type in all cases: physicochemical
[1] = Equilibrium humidity evaluation of crystalline compound 1 HCl Form A (95% RH/20° C.)
Description: The stability of crystalline compound 1 HCl Form A was evaluated. Absorbent compound 1·Cl (Form A), (100 mg) was maintained, open-capped at 95% RH/20° C. and monitored at t=0, t=5 d and t=10 d, time points.
While absorbent Compound 1 HCl Form A), (100 mg) was placed open-capped inside double, cable-tied, electrostatic polythene bags (to mimic a typical packaging configuration) and placed inside the same humidity chamber at 95% RH at 20° C. and monitored at t=0, t=5 d and t=10 d time points. Stability of compound 1·HCl (Form A) at 40° C./75% RH was examined as part of the salt screen, and was stable over 10 d.

[2] = Qualitative solubility screen of Compound 1 HCl
Description: The qualitative solubility screen was carried out to determine the range of solvents incorporated into future suspension equilibration panels.
Products that crystallized were centrifuged and analyzed as wet pellet by XRPD, dried under reduced pressure and re-analyzed by XRPD, with selected samples further analyzed by TGA and ^1H NMR spectroscopy.

[3] = Qualitative solubility screen of Compound 1 Fumarate in solvents
Description: The salt compound also dissolved in refluxing methylisobutyketone (MIBK) at 15 vol concentration. Consistent with Example 1, the solutions formed were cooled and the IPA, 2-MeTHF and MIBK solutions yielded solid material on cooling. The solid product obtained from MIBK was analyzed by XRPD, TG and ^1H NMR—the XRPD diffractogram is provided as FIG. 1 and the ^1H NMR spectrum is provided as FIG. 2.
Compound 1·Fumarate was soluble in many of the common solvents assessed (predominantly Classes 2 and 3 solvents) at 5.0 vol (200 mg/ml), 10.0 vol, 15.0 vol and 20.0 vol (refer to Table). Solids were isolated on cooling from isopropanol (IPA, 5.0 vol), 2-MeTHF (5.0 vol) and methylisobutylketone (MIBK, 15.0 vol). The products from IPA and 2-MeTHF were gums, and not pursued further.
Compound 1 Fumarate (batch 1, 25 mg, 1 wt) was weighed out in 20 separate vials to qualitatively examine the solubility in an array of diverse solvents. […] If insoluble at 5 vol, the solvent quantity was increased to 10 vol, 15 vol and 20 vol of the respective solvent. The suspensions that occurred upon cooling down were centrifuged and the solvent wet pellets were analysed by XRPD. The insoluble suspensions were additionally worked up for XRPD analysis. The resultant powder patterns were subsequently cross-referenced against the input supplied material.

[4] = t = 10 d, open-capped vial inside double bags at 95% RH/20 (Table 111)
[5] = t = 10 d, open-capped vial inside double bags at 95% RH/20 (Table 112)
[6] = Ethanol/Water (15% v/v, 0.5 aw), 5 vol

COc1ccc2c(ccn2C[C@@H](C)N(C)C)c1.Cl [Compound 1 HCl]
0.08: HPLC purity data, peak RT 16,50, RRT 1.36 ([1]; t = 0, Table 111) | HPLC purity data, peak RT 16.50, RRT 1.36 ([1]; t = 0, Table 112)
Paste: XRPD (moist pellet) ([2]; 2-Propanol) | XRPD (moist pellet) ([2]; Chlorobenzene) | XRPD (moist pellet) ([2]; MEK) | XRPD (moist pellet) ([2]; MeTHF) | XRPD (moist pellet) ([2]; Methyl acetate) | XRPD (moist pellet) ([2]; Nitromethane) | XRPD (moist pellet) ([2]; Toluene)
0.01: HPLC purity data, peak RT 15.41, RRT 1.27 [1, 5]
99.78: HPLC purity data, peak RT 12.14, RRT 1.00 (main peak) [1, 5]
soluble: Qualitative solubility ([2]; polar and aqueous solvents at temperature, panel of 22 solvents)
✓: Solid on cooling? ([2]; 2-Propanol, 10 vol) | Solution at reflux ([2]; 2-Propanol, 10 vol) | Solution at reflux ([2]; 2-Propanol, 15 vol) | Solid on cooling ([2]; Acetone/Water (5% v/v, 0.5 aw), 5 vol) | Solution at reflux ([2]; Acetone/Water (5% v/v, 0.5 aw), 10 vol) | Solid on cooling ([2]; EtOH, 15 vol) | Solid on cooling ([2]; EtOH, 20 vol) | Solid on cooling [2, 6] | Solution at reflux [2, 6] | Solution at 20° C. ([2]; Ethanol/Water (15% v/v, 0.5 aw), 10 vol) | Solid on cooling ([2]; Isopropanol/Water (12%, v/v, 0.5 aw), 5 vol) | Solution at reflux ([2]; Isopropanol/Water (12%, v/v, 0.5 aw), 10 vol) | Solid on cooling ([2]; MeCN, 15 vol) | Solid on cooling ([2]; MeCN, 20 vol) | Solution at reflux ([2]; MeOH, 10 vol) | Solid on cooling? ([2]; Nitromethane, 10 vol) | Solution at 40° C. ([2]; Nitromethane, 15 vol) | Solution at reflux ([2]; Nitromethane, 15 vol) | Solution at 20° C. ([2]; Water, 5 vol)
0.03: HPLC purity data, peak RT 14.32, RRT 1.18 ([1]; t = 0, Table 111) | HPLC purity data, peak RT 14.32, RRT 1.18 ([1]; t = 0, Table 112) | HPLC purity data, peak RT 14.32, RRT 1.18 [1, 4] | HPLC purity data, peak RT 14.32, RRT 1.18 [1, 5] | HPLC purity data, peak RT 14.68, RRT 1.21 [1, 5]
Form A: XRPD (dried pellet) ([2]; 2-Propanol) | XRPD (dried pellet) ([2]; Acetone) | XRPD (moist pellet) ([2]; Acetone) | XRPD (dried pellet) ([2]; Chlorobenzene) | XRPD (moist pellet) ([2]; DCM) | XRPD (moist pellet) ([2]; EtOAc) | XRPD (dried pellet) ([2]; EtOH) | XRPD (moist pellet) ([2]; EtOH) | XRPD (moist pellet) ([2]; Ethyl formate) | XRPD (moist pellet) ([2]; Heptane) | XRPD (dried pellet) ([2]; MEK) | XRPD (moist pellet) ([2]; MeCN) | XRPD (dried pellet) ([2]; MeTHF) | XRPD (dried pellet) ([2]; Methyl acetate) | XRPD (dried pellet) ([2]; Nitromethane) | XRPD (moist pellet) ([2]; TBME) | XRPD (dried pellet) ([2]; Toluene)
readily soluble: Qualitative solubility ([2]; polar solvents and solvents with high water activity)
0.04: HPLC purity data, peak RT 15.78, RRT 1.30 ([1]; t = 0, Table 111) | HPLC purity data, peak RT 15.78, RRT 1.30 ([1]; t = 0, Table 112) | HPLC purity data, peak RT 15.05, RRT 1.24 [1, 4]
0.05: HPLC purity data, peak RT 15.05, RRT 1.24 ([1]; t = 0, Table 111) | HPLC purity data, peak RT 15.05, RRT 1.24 ([1]; t = 0, Table 112) | HPLC purity data, peak RT 15.05, RRT 1.24 [1, 5]
99.79: HPLC purity data, peak RT 12.41, RRT 1.00 (main peak) [1, 4]
0.07: HPLC purity data, peak RT 11.41, RRT 0.94 ([1]; t = 0, Table 111) | HPLC purity data, peak RT 15.41, RRT 1.27 ([1]; t = 0, Table 111) | HPLC purity data, peak RT 11.41, RRT 0.94 ([1]; t = 0, Table 112) | HPLC purity data, peak RT 15.41, RRT 1.27 ([1]; t = 0, Table 112)
Solution: XRPD (moist pellet) ([2]; Acetone/Water (5% v/v, 0.5 aw)) | XRPD (moist pellet) ([2]; Ethanol/Water (15% v/v, 0.5 aw)) | XRPD (moist pellet) ([2]; Isopropanol/Water (12%, v/v, 0.5 aw)) | XRPD (moist pellet) ([2]; MeOH) | XRPD (moist pellet) ([2]; Water)
0.02: HPLC purity data, peak RT 12.01, RRT 0.99 ([1]; t = 0, Table 112) | HPLC purity data, peak RT 11.41, RRT 0.94 [1, 4] | HPLC purity data, peak RT 15.41, RRT 1.27 [1, 4] | HPLC purity data, peak RT 12.01, RRT 0.99 [1, 5] | HPLC purity data, peak RT 15.78, RRT 1.30 [1, 5]
0.06: HPLC purity data, peak RT 11.29, RRT 0.93 [1, 4] | HPLC purity data, peak RT 11.41, RRT 0.94 [1, 5]
99.65: HPLC purity data, peak RT 12.41, RRT 1.00 (main peak) ([1]; t = 0, Table 111) | HPLC purity data, peak RT 12.14, RRT 1.00 (main peak) ([1]; t = 0, Table 112)

COc1ccc2c(ccn2C[C@@H](C)[NH+](C)C)c1.O=C(O)/C=C/C(=O)O [Compound 1 fumarate, (R)-1-(5-methoxy-1H-indol-1-yl)-N,N-dimethylpropan-2-amine fumarate]
No: Solid on cooling ([3]; Dioxane, 5 vol)
✓: Solution at reflux ([3]; 2-MeTHF, 5 vol (200 mg/ml), fumarate) | Solution at 20° C. ([3]; Acetone, 5 vol (200 mg/ml), fumarate) | Solution at 20° C. ([3]; Butanol, 5 vol (200 mg/ml), fumarate) | Solution at 20° C. ([3]; DCM, 5 vol (200 mg/ml), fumarate) | Solution at 40° C. ([3]; Dioxane, 5 vol (200 mg/ml), fumarate) | Solution at 20° C. ([3]; Ethanol, 5 vol (200 mg/ml), fumarate) | Solution at 40° C. ([3]; IPA, 5 vol (200 mg/ml), fumarate) | Solution at 20° C. ([3]; MEK, 5 vol (200 mg/ml), fumarate) | Solution at reflux ([3]; MIBK, 10, 15 & 20 vol) | Solution at 20° C. ([3]; MeCN, 5 vol (200 mg/ml), fumarate) | Solution at 20° C. ([3]; Methanol, 5 vol (200 mg/ml), fumarate) | Solution at 20° C. ([3]; THF, 5 vol (200 mg/ml), fumarate) | Solution at 20° C. ([3]; Water, 5 vol (200 mg/ml), fumarate)
dissolved: Dissolution in refluxing methylisobutyketone (MIBK) ([3]; MIBK, reflux, 15 vol concentration)
Yes: Solid on cooling ([3]; 2-MeTHF, 5 vol) | Solid on cooling ([3]; IPA, 5 vol) | Solid on cooling ([3]; MIBK, 10, 15 & 20 vol)
soluble: Solution at reflux ([3]; 2-MeTHF, 5 vol (200 mg/ml), listed as fumarate salt, fumarate) | Solution at 20° C. ([3]; Acetone, 5 vol (200 mg/ml), listed as fumarate salt, fumarate) | Solution at 20° C. ([3]; Butanol, 5 vol (200 mg/ml), listed as fumarate salt, fumarate) | Solution at 20° C. ([3]; DCM, 5 vol (200 mg/ml), listed as fumarate salt, fumarate) | Solution at 40° C. ([3]; Dioxane, 5 vol (200 mg/ml), listed as fumarate salt, fumarate) | Solution at 20° C. ([3]; Ethanol, 5 vol (200 mg/ml), listed as fumarate salt, fumarate) | Solution at 40° C. ([3]; IPA, 5 vol (200 mg/ml), listed as fumarate salt, fumarate) | Solution at 20° C. ([3]; MEK, 5 vol (200 mg/ml), listed as fumarate salt, fumarate) | Solution at 20° C. ([3]; MeCN, 5 vol (200 mg/ml), listed as fumarate salt, fumarate) | Solution at 20° C. ([3]; Methanol, 5 vol (200 mg/ml), listed as fumarate salt, fumarate) | Solution at 20° C. ([3]; THF, 5 vol (200 mg/ml), listed as fumarate salt, fumarate) | Solution at 20° C. ([3]; Water, 5 vol (200 mg/ml), listed as fumarate salt, fumarate)
